Target: PDE1A (Homo sapiens, UniProt P54750)
Experiment: PDE1A enzyme inhibition (fluorescence polarization, FAM-cyclic-3',5'-AMP)
Format: biochemical
Conditions: for IC50: 15 ng/mL PDE1A, 100 nM FAM-cAMP, 25 °C, 1 h; for PDE1A inhibitory activity compared to vinpocetine (in words) / fold improvement in PDE1A inhibitory activity compared to vinpocetine: relative to vinpocetine
Procedure: The assays were carried out as described previously. All of the enzymatic reactions were conducted at 25 °C for 1 h. The reaction mixture contains 40 mM MOPS (pH 7.5), 0.5 mM EDTA, 15 mM MgCl2, 0.15 mg/mL BSA, 1 mM DTT, 0.05% Proclin 200, 15 ng/mL PDE1A, and 100 nM FAM-cyclic-3′, 5′-AMP. The compounds were dissolved in 10% DMSO, and 5 μL of the dilution was added to a 50 μL reaction for a final concentration of 1% DMSO in all reactions. The reaction mixture was incubated at 25 °C for 1 h. Then, 100 μL of diluted binding agent was added to each well and incubated at 25 °C for 1 h with slow shaking. The fluorescence polarization of the sample was detected using an excitation filter of 360 nm and an emission filter of 480 nm. The IC50 values were calculated using non-linear regression with a normalized dose–response fit using Prism 6 (GraphPad Software, San Diego, CA, USA).

PDE1A, sequence (P54750 whole entry, species assumed): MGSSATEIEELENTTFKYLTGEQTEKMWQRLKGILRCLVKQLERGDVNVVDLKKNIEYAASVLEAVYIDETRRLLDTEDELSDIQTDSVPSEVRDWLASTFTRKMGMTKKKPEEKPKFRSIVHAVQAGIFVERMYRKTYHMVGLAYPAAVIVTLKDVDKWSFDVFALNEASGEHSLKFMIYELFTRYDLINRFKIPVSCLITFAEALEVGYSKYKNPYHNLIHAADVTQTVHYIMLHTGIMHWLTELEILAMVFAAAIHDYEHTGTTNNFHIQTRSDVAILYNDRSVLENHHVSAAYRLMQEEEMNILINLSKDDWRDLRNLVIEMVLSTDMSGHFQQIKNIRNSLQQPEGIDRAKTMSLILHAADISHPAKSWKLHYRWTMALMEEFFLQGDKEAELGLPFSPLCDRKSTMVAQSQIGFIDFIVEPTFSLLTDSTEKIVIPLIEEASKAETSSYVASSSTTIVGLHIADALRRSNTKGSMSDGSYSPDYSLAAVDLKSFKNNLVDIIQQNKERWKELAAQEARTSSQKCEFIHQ

Row | SMILES | IC50 [µM] | fold improvement in PDE1A inhibitory activity compared to vinpocetine [fold] | PDE1A inhibitory activity compared to vinpocetine (in words)
1 | CC[C@@]12C=C(COCc3ccccc3)n3c4c(c5ccccc53)CCN(CCC1)[C@H]42 [Compound 2, (41S,13aS)-12-((benzyloxy)methyl)-13a-ethyl-2,3,41,5,6,13a-hexahydro-1H-indolo[3,2,1-de]pyrido[3,2,1-ij][1,5]naphthyridine] | 19.2 ± 2.25 | – | –
2 | CC[C@@]12C=C(COCc3ccc(C)cc3)n3c4c(c5ccccc53)CCN(CCC1)[C@H]42 [Compound 3, (41S,13aS)-13a-ethyl-12-(((4-methylbenzyl)oxy)methyl)-2,3,41,5,6,13a-hexahydro-1H-indolo[3,2,1-de]pyrido[3,2,1-ij][1,5]naphthyridine] | 8.52 ± 0.68 | – | superior inhibitory activity compared to vinpocetine
3 | CCC12C=C(COCc3cccc(C)c3)n3c4c(c5ccccc53)CCN(CCC1)C42 [Compound 4, (41S,13aS)-13a-ethyl-12-(((3-methylbenzyl)oxy)methyl)-2,3,41,5,6,13a-hexahydro-1H-indolo[3,2,1-de]pyrido[3,2,1-ij][1,5]naphthyridine] | 3.53 ± 0.25 | 5 | superior inhibitory activity compared to vinpocetine
4 | CC[C@@]12C=C(COCc3ccc(F)cc3)n3c4c(c5ccccc53)CCN(CCC1)[C@H]42 [Compound 5, (41S,13aS)-13a-ethyl-12-(((4-fluorobenzyl)oxy)methyl)-2,3,41,5,6,13a-hexahydro-1H-indolo[3,2,1-de]pyrido[3,2,1-ij][1,5]naphthyridine] | 17.2 ± 3.75 | – | superior inhibitory activity compared to vinpocetine
5 | CC[C@@]12C=C(COCc3cccc(F)c3)n3c4c(c5ccccc53)CCN(CCC1)[C@H]42 [Compound 6, (41S,13aS)-13a-ethyl-12-(((3-fluorobenzyl)oxy)methyl)-2,3,41,5,6,13a-hexahydro-1H-indolo[3,2,1-de]pyrido[3,2,1-ij][1,5]naphthyridine] | 25.6 ± 1.23 | – | –
6 | CC[C@@]12C=C(COCc3ccccc3F)n3c4c(c5ccccc53)CCN(CCC1)[C@H]42 [Compound 7, (41S,13aS)-13a-ethyl-12-(((2-fluorobenzyl)oxy)methyl)-2,3,41,5,6,13a-hexahydro-1H-indolo[3,2,1-de]pyrido[3,2,1-ij][1,5]naphthyridine] | 28.7 ± 1.15 | – | –
7 | CC[C@@]12C=C(COCc3ccc(Cl)cc3)n3c4c(c5ccccc53)CCN(CCC1)[C@H]42 [Compound 8, (41S,13aS)-12-(((4-chlorobenzyl)oxy)methyl)-13a-ethyl-2,3,41,5,6,13a-hexahydro-1H-indolo[3,2,1-de]pyrido[3,2,1-ij][1,5]naphthyridine] | 48.8 ± 2.55 | – | –
8 | CC[C@@]12C=C(COCc3cccc(Cl)c3)n3c4c(c5ccccc53)CCN(CCC1)[C@H]42 [Compound 9, (41S,13aS)-12-(((3-chlorobenzyl)oxy)methyl)-13a-ethyl-2,3,41,5,6,13a-hexahydro-1H-indolo[3,2,1-de]pyrido[3,2,1-ij][1,5]naphthyridine] | 72.1 ± 3.89 | – | –
9 | CC[C@@]12C=C(COCc3ccccc3Cl)n3c4c(c5ccccc53)CCN(CCC1)[C@H]42 [Compound 10, (41S,13aS)-12-(((2-chlorobenzyl)oxy)methyl)-13a-ethyl-2,3,41,5,6,13a-hexahydro-1H-indolo[3,2,1-de]pyrido[3,2,1-ij][1,5]naphthyridine] | 35 ± 1.85 | – | –
10 | CC[C@@]12C=C(COCc3ccc(Br)cc3)n3c4c(c5ccccc53)CCN(CCC1)[C@H]42 [Compound 11, (41S,13aS)-12-(((4-bromobenzyl)oxy)methyl)-13a-ethyl-2,3,41,5,6,13a-hexahydro-1H-indolo[3,2,1-de]pyrido[3,2,1-ij][1,5]naphthyridine] | 54.8 ± 3.42 | – | –
11 | CC[C@@]12C=C(COCc3cccc(Br)c3)n3c4c(c5ccccc53)CCN(CCC1)[C@H]42 [Compound 12, (41S,13aS)-12-(((3-bromobenzyl)oxy)methyl)-13a-ethyl-2,3,41,5,6,13a-hexahydro-1H-indolo[3,2,1-de]pyrido[3,2,1-ij][1,5]naphthyridine] | 12.5 ± 1.06 | – | superior inhibitory activity compared to vinpocetine
12 | CC[C@@]12C=C(COCc3ccccc3Br)n3c4c(c5ccccc53)CCN(CCC1)[C@H]42 [Compound 13, (41S,13aS)-12-(((2-bromobenzyl)oxy)methyl)-13a-ethyl-2,3,41,5,6,13a-hexahydro-1H-indolo[3,2,1-de]pyrido[3,2,1-ij][1,5]naphthyridine] | 88.3 ± 3.26 | – | –
13 | CC[C@@]12C=C(COCc3ccc(C#N)cc3)n3c4c(c5ccccc53)CCN(CCC1)[C@H]42 [Compound 14, 4-((((41S,13aS)-13a-ethyl-2,3,41,5,6,13a-hexahydro-1H-indolo[3,2,1-de]pyrido[3,2,1-ij][1,5]naphthyridin-12-yl)methoxy)methyl)benzonitrile] | 15.6 ± 1.09 | – | superior inhibitory activity compared to vinpocetine
14 | CC[C@@]12C=C(COCc3ccccc3C#N)n3c4c(c5ccccc53)CCN(CCC1)[C@H]42 [Compound 15, 2-((((41S,13aS)-13a-ethyl-2,3,41,5,6,13a-hexahydro-1H-indolo[3,2,1-de]pyrido[3,2,1-ij][1,5]naphthyridin-12-yl)methoxy)methyl)benzonitrile] | 45.1 ± 2.27 | – | –
15 | CC[C@@]12C=C(COCc3ccc(C(F)(F)F)cc3)n3c4c(c5ccccc53)CCN(CCC1)[C@H]42 [Compound 16, (41S,13aS)-13a-ethyl-12-(((4-(trifluoromethyl)benzyl)oxy)methyl)-2,3,41,5,6,13a-hexahydro-1H-indolo[3,2,1-de]pyrido[3,2,1-ij][1,5]naphthyridine] | 57.7 ± 2.96 | – | –

Continued, in another order:

Row | IC50 [µM] | fold improvement in PDE1A inhibitory activity compared to vinpocetine [fold] | SMILES | PDE1A inhibitory activity compared to vinpocetine (in words)
16 | 48.4 ± 1.44 | – | CC[C@@]12C=C(COCc3cccc(C(F)(F)F)c3)n3c4c(c5ccccc53)CCN(CCC1)[C@H]42 [Compound 17, (41S,13aS)-13a-ethyl-12-(((3-(trifluoromethyl)benzyl)oxy)methyl)-2,3,41,5,6,13a-hexahydro-1H-indolo[3,2,1-de]pyrido[3,2,1-ij][1,5]naphthyridine] | –
17 | 44.8 ± 2.26 | – | CC[C@@]12C=C(COCc3ccc(-c4ccccc4)cc3)n3c4c(c5ccccc53)CCN(CCC1)[C@H]42 [Compound 18, (41S,13aS)-12-(([1,1′-biphenyl]-4-ylmethoxy)methyl)-13a-ethyl-2,3,41,5,6,13a-hexahydro-1H-indolo[3,2,1-de]pyrido[3,2,1-ij][1,5]naphthyridine] | –
18 | 54.3 ± 1.84 | – | CC[C@@]12C=C(COCc3cccc4ccccc34)n3c4c(c5ccccc53)CCN(CCC1)[C@H]42 [Compound 19, (41S,13aS)-13a-ethyl-12-((naphthalen-1-ylmethoxy)methyl)-2,3,41,5,6,13a-hexahydro-1H-indolo[3,2,1-de]pyrido[3,2,1-ij][1,5]naphthyridine] | –
19 | 89.6 ± 5.34 | – | CC[C@@]12C=C(COCc3ccc4ccccc4c3)n3c4c(c5ccccc53)CCN(CCC1)[C@H]42 [Compound 20, (41S,13aS)-13a-ethyl-12-((naphthalen-2-ylmethoxy)methyl)-2,3,41,5,6,13a-hexahydro-1H-indolo[3,2,1-de]pyrido[3,2,1-ij][1,5]naphthyridine] | –
20 | 10 ± 0.85 | – | CC[C@@]12C=C(COCc3cc(C)cc(C)c3)n3c4c(c5ccccc53)CCN(CCC1)[C@H]42 [Compound 21, (41S,13aS)-12-(((3,5-dimethylbenzyl)oxy)methyl)-13a-ethyl-2,3,41,5,6,13a-hexahydro-1H-indolo[3,2,1-de]pyrido[3,2,1-ij][1,5]naphthyridine] | superior inhibitory activity compared to vinpocetine
21 | 46.4 ± 1.94 | – | CC[C@@]12C=C(COCc3cc(F)cc(F)c3)n3c4c(c5ccccc53)CCN(CCC1)[C@H]42 [Compound 22, (41S,13aS)-12-(((3,5-difluorobenzyl)oxy)methyl)-13a-ethyl-2,3,41,5,6,13a-hexahydro-1H-indolo[3,2,1-de]pyrido[3,2,1-ij][1,5]naphthyridine] | –
22 | 58.2 ± 3.2 | – | CC[C@@]12C=C(COCc3cc(Br)cc(Br)c3)n3c4c(c5ccccc53)CCN(CCC1)[C@H]42 [Compound 23, (41S,13aS)-12-(((3,5-dibromobenzyl)oxy)methyl)-13a-ethyl-2,3,41,5,6,13a-hexahydro-1H-indolo[3,2,1-de]pyrido[3,2,1-ij][1,5]naphthyridine] | –
23 | 63.7 ± 3.85 | – | CC[C@@]12C=C(COCc3cc(C)nn3C)n3c4c(c5ccccc53)CCN(CCC1)[C@H]42 [Compound 24, (41S,13aS)-12-(((1,3-dimethyl-1H-pyrazol-5-yl)methoxy)methyl)-13a-ethyl-2,3,41,5,6,13a-hexahydro-1H-indolo[3,2,1-de]pyrido[3,2,1-ij][1,5]naphthyridine] | –
24 | 2.08 ± 0.16 | 8 | CCC12C=C(COCc3cnc(Cl)s3)n3c4c(c5ccccc53)CCN(CCC1)C42 [Compound 25, 2-chloro-5-((((41S,13aS)-13a-ethyl-2,3,41,5,6,13a-hexahydro-1H-indolo[3,2,1-de]pyrido[3,2,1-ij][1,5]naphthyridin-12-yl)methoxy)methyl)thiazole] | superior inhibitory activity compared to vinpocetine
25 | 17.3 ± 1.21 | – | CCOC(=O)C1=C[C@]2(CC)CCCN3CCc4c(n1c1ccccc41)[C@@H]32 [Vinpocetine] | –

— article PMC10779641, “Synthesis and Activity Evaluation of Vinpocetine-Derived Indole Alkaloids” (Molecules, 2023)
